Test results published in the supplement of paper PMC10307832.

Key:
Assay in all cases: relative viability (nuclei count vs DMSO), 5 days (fraction); higher = more cells survive
[1] = compound: O=C(CCCCCCNC(=O)c1cnc(N(c2ccccc2)c2ccccc2)nc1)NO [Ricolinostat] + CC(C)C[C@H](NC(=O)[C@H](Cc1ccccc1)NC(=O)c1cnccn1)B(O)O [Bortezomib] (partner 0.002 µM)
How it was run: (§1)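 For relative viability, nuclei counts in treated wells were divided by those in vehicle wells. Lung cancer cell lines had been pin-tool dosed in 1536-well plates the day after seeding and cultured for 5 days, then fixed and stained in one step (final 0.05% Triton X-100, 1% formaldehyde, 1 ug/ml Hoechst) and imaged at 4×. Doses were one drug alone or a fixed anchor-drug dose plus five library-drug doses (not always all listed) in √10 steps, and values are duplicate-plate medians.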

[2] = compound: C1=CC=C(C(=C1)C2=CC=C(C=C2)C3=CSC4=C3C(=C(C(=O)N4)C#N)O)O + Cc1nc(NC(=O)N2CCC[C@H]2C(N)=O)sc1-c1ccnc(C(C)(C)C(F)(F)F)c1 [Alpelisib] (partner 2 µM)
How it was run: as §1

[3] = compound: C1=CC=C(C(=C1)C2=CC=C(C=C2)C3=CSC4=C3C(=C(C(=O)N4)C#N)O)O + COc1cccc2cc(-c3nc([C@H]4CC[C@H](C(=O)O)CC4)n4ncnc(N)c34)[nH]c12 [OSI-027] (partner 0.5 µM)
How it was run: as §1

[4] = compound: C1=CC=C(C(=C1)C2=CC=C(C=C2)C3=CSC4=C3C(=C(C(=O)N4)C#N)O)O + CC(C)C[C@H](NC(=O)[C@H](Cc1ccccc1)NC(=O)c1cnccn1)B(O)O [Bortezomib] (partner 0.002 µM)
How it was run: as §1

[5] = compound: C1=CC=C(C(=C1)C2=CC=C(C=C2)C3=CSC4=C3C(=C(C(=O)N4)C#N)O)O + N=C(N)NC(=N)NCCc1ccccc1 [Phenformin] (partner 250 µM)
How it was run: as §1

NCI-H1792 showed a relative viability ([1]; first compound 0.08 µM) of 0.899, a relative viability ([1]; first compound 0.253 µM) of 0.926 and a relative viability ([1]; first compound 0.8 µM) of 0.944. It also gave a relative viability ([1]; first compound 2.53 µM) of 0.973, a relative viability ([2]; first compound 0.253 µM) of 0.638 and a relative viability ([2]; first compound 0.8 µM) of 0.744. For the same cell line, the relative viability ([2]; first compound 2.53 µM) was 0.612, the relative viability ([2]; first compound 8 µM) was 0.336 and the relative viability ([3]; first compound 0.253 µM) was 0.688. For the same cell line, the relative viability ([3]; first compound 2.53 µM) was 0.667, the relative viability ([3]; first compound 8 µM) was 0.477 and the relative viability ([4]; first compound 0.253 µM) was 0.866. The relative viability ([4]; first compound 0.8 µM) was 1.1, the relative viability ([4]; first compound 2.53 µM) was 1.03 and the relative viability ([4]; first compound 8 µM) was 0.425. It also gave a relative viability ([5]; first compound 0.08 µM) of 0.113, a relative viability ([5]; first compound 0.253 µM) of 0.283 and a relative viability ([5]; first compound 0.8 µM) of 0.287. It also gave a relative viability ([5]; first compound 2.53 µM) of 0.36 and a relative viability ([5]; first compound 8 µM) of 0.268.
